# Laboratory results published in US20250255978A1, “DRUG-DELIVERY NANOPARTICLES AND TREATMENTS FOR DRUG-RESISTANT CANCER” (Cedars-Sinai Medical Center, priority 2016, published 2025).
# Legend:
# Assay in all cases: Cell viability assay (MTS), relative cell survival
# Conditions in all cases: dose range, 4 h + 44 h incubation
# [1] = system: BT474 (human breast cancer) cells; assay type: cell-based
# Description: (§1) Plates were rocked for 4 hours at 37° C. and 5% CO2 and then 60 μL of complete media was added to each well to bring the total volume to 100 μL and the incubation was continued, without rocking, for 44 hours at 37° C. and 5% CO2. At the conclusion of the incubation, relative cell viability was determined via MTS assay (Promega) according to manufacturer's instructions. Specifically, the media was removed from the wells and 100 μL of fresh complete media was added to each well. 20 μl of the prepared MTS reagent was added to each well. The plate was then incubated with rocking at 37° C. and 5% CO2 and readings were taken of the plate at 1, 2, and 3 hours at 490 nm using a spectrophotometer.
# (§2) The cells per well were plated in black-walled, clear-bottom, 96-well plates. […] At the conclusion of the incubation, relative cell viability was determined via MTS assay (Promega) according to manufacturer's instructions. […] The plate was then incubated with rocking at 37° C. and 5% CO2 and readings were taken of the plate at 1, 2, and 3 hours at 490 nm using a spectrophotometer. […]
# (§3) The cells per well were plated in black-walled, clear-bottom, 96-well plates. […] At the conclusion of the incubation, relative cell viability was determined via MTS assay (Promega) according to manufacturer's instructions. […]
# [2] = system: BT474-TR (trastuzumab-resistant human breast cancer) cells; assay type: cell-based
# Description: as §1, with “The cells per well were plated in black-walled, clear-bottom, 96-well plates. […] Plates” for “Plates”
# as §3, §3
# [3] = system: JIMT1 (human breast cancer cells from a patient naturally resistant to trastuzumab); assay type: cell-based
# Description: as §1, with “Relative cell survival after exposure to the described compositions was measured using a cell viability assay. 15,000, 10,000, or 8,000 cells per well were plated in black-walled, clear-bottom, 96-well plates. […] Plates” for “Plates”, “spectrophotometer. […]” for “spectrophotometer.”
# as §2, with “concentration of Eos-001 is reported” for “cells per well were plated”, “μM doxorubicin, and the concentration of lapatinib is reported in μM lapatinib.” for “black-walled, clear-bottom, 96-well plates.”, “on” for “using a”
# [4] = system: SKBR3 (human breast cancer) cells; assay type: cell-based
# Description: as §1, with “The cells per well were plated in black-walled, clear-bottom, 96-well plates. […] Plates” for “Plates”
# (§4) To verify the contribution of HER3 targeted toxicity of the Eos-001 nanoparticles, a HER3 peptide was used as a competitive inhibitor. The HER3 peptide was pre-incubated with the Eos-001 particles, which bound the heregulin targeting domain. […]
# as §3
# [5] = system: SKBR3-TR (trastuzumab resistant breast cancer) cells; assay type: cell-based, human
# Description: as §1, with “The cells per well were plated in black-walled, clear-bottom, 96-well plates. […] Plates” for “Plates”
# as §4, §3
smiles,measurement,setting,value
CS(=O)(=O)CCNCc1ccc(-c2ccc3ncnc(Nc4ccc(OCc5cccc(F)c5)c(Cl)c4)c3c2)o1 [lapatinib],effect on survival / killing of BT474 cells,[1],similarly effective
same,killing of BT474-TR cells,[2],slightly effective
same,effect on survival / killing of JIMT1 cells,[3],unable to kill
same,killing of SKBR3 cells,[4],similarly effective
same,killing of SKBR3-TR cells,[5],slightly effective
